Source: PubChem BioAssay AID1919003 (Molecular Pharmacology Branch, DTP, NCI, 2023)
“And” between values parts separate entries of the source, which are not always exact repeats. Equal entries are not always repeated.

System: 786-0 complex spheroids with HUVEC/MSC, growth % test/control
Experiment: Anticancer human tumor 786-0 cell line growth inhibition [AhR];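 further: compound exposure lasted seven days before the read-out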
Conditions: for viability, T/C: stronger effect = lower value
In short: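 Spheroids combined tumor cells with HUVEC endothelial cells and human MSCs as stroma. AhR antagonists were paired with standard or investigational drugs, each dosed in half-log steps down from near clinical Cmax, or from 10 microM where Cmax was unknown.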

[1] = curve of first compound, second compound 0.1 µM
[2] = curve of first compound, second compound 0.316 µM
[3] = curve of first compound, second compound 1 µM
[4] = curve of first compound, second compound 3.16 µM
[5] = curve of first compound, second compound 10 µM

## CCN(c1cc(-c2ccc(CN3CCOCC3)cc2)cc(C(=O)NCc2c(C)cc(C)[nH]c2=O)c1C)C1CCOCC1
Compound 0.00949 µM
  viability, T/C: 100% (2×) and 106%
Compound 0.03 µM
  viability, T/C: 98.8% and 111% and 109%
Compound 0.0949 µM
  viability, T/C: 105% and 96.5% and 96.9%
Compound 0.3 µM
  viability, T/C: 110% and 109% and 112%
Compound 0.949 µM
  viability, T/C: 110% and 109% and 102%
Compound 3 µM
  viability, T/C: 117% and 104% and 107%
Curve of compound
  IC50: > 3000 nM

## Nc1ncn(C2CC(O)C(CO)O2)c(=O)n1 (configuration not stated) + Cc1cncc(-c2nc(NCCc3c[nH]c4ccccc34)c3ncn(C(C)C)c3n2)c1
[1]
  IC50: > 1000 nM
[2]
  IC50: > 1000 nM
[3]
  IC50: > 1000 nM
[4]
  IC50: > 1000 nM
[5]
  IC50: < 3.16 nM
Second compound 0.1 µM, first compound 0.00316 µM
  viability, T/C: 123%
Second compound 0.1 µM, first compound 0.01 µM
  viability, T/C: 115%
Second compound 0.1 µM, first compound 0.0316 µM
  viability, T/C: 118%
Second compound 0.1 µM, first compound 0.1 µM
  viability, T/C: 115%
Second compound 0.1 µM, first compound 0.316 µM
  viability, T/C: 106%
Second compound 0.1 µM, first compound 1 µM
  viability, T/C: 95.8%
Second compound 0.316 µM, first compound 0.00316 µM
  viability, T/C: 116%
Second compound 0.316 µM, first compound 0.01 µM
  viability, T/C: 128%
Second compound 0.316 µM, first compound 0.0316 µM
  viability, T/C: 117%
Second compound 0.316 µM, first compound 0.1 µM
  viability, T/C: 127%
Second compound 0.316 µM, first compound 0.316 µM
  viability, T/C: 113%
Second compound 0.316 µM, first compound 1 µM
  viability, T/C: 103%
Second compound 1 µM, first compound 0.00316 µM
  viability, T/C: 124%
Second compound 1 µM, first compound 0.01 µM
  viability, T/C: 116%
Second compound 1 µM, first compound 0.0316 µM
  viability, T/C: 123%
Second compound 1 µM, first compound 0.1 µM
  viability, T/C: 112%
Second compound 1 µM, first compound 0.316 µM
  viability, T/C: 99%
Second compound 1 µM, first compound 1 µM
  viability, T/C: 96.9%
Second compound 3.16 µM, first compound 0.00316 µM
  viability, T/C: 77.5%
Second compound 3.16 µM, first compound 0.01 µM
  viability, T/C: 80.4%
Second compound 3.16 µM, first compound 0.0316 µM
  viability, T/C: 78.5%
Second compound 3.16 µM, first compound 0.1 µM
  viability, T/C: 90.4%
Second compound 3.16 µM, first compound 0.316 µM
  viability, T/C: 85.4%
Second compound 3.16 µM, first compound 1 µM
  viability, T/C: 76.2%
Second compound 10 µM, first compound 0.00316 µM
  viability, T/C: 8.18%
Second compound 10 µM, first compound 0.01 µM
  viability, T/C: 13.5%
Second compound 10 µM, first compound 0.0316 µM
  viability, T/C: 11.1%
Second compound 10 µM, first compound 0.1 µM
  viability, T/C: 9.3%
Second compound 10 µM, first compound 0.316 µM
  viability, T/C: 8.63%
Second compound 10 µM, first compound 1 µM
  viability, T/C: 10.9%

## CC(C)c1c(-c2ccccc2)nc2c(C#N)c[nH]n2c1=O
Compound 0.0316 µM
  viability, T/C: 101% and 108% and 93.8%
Compound 0.1 µM
  viability, T/C: 106% and 99.9% and 109%
Compound 0.316 µM
  viability, T/C: 101% and 103% and 108%
Compound 1 µM
  viability, T/C: 105% and 101% and 100%
Compound 3.16 µM
  viability, T/C: 97.5% and 110% and 105%
Compound 10 µM
  viability, T/C: 99% and 98% and 97.1%
Curve of compound
  IC50: > 10000 nM

## Cc1cncc(-c2nc(NCCc3c[nH]c4ccccc34)c3ncn(C(C)C)c3n2)c1
Compound 0.1 µM
  viability, T/C: 114% [middle of 20 runs]
Compound 10 µM
  viability, T/C: 11.6% [middle of 20 runs]
Compound alone, run of 08/16/2022
  IC50: 5.18 µM [middle of 23 runs]

## O=C(C=Cn1cnc(-c2cc(C(F)(F)F)cc(C(F)(F)F)c2)n1)NNc1cnccn1 + Cc1cncc(-c2nc(NCCc3c[nH]c4ccccc34)c3ncn(C(C)C)c3n2)c1
[1]
  IC50: 736 nM
[2]
  IC50: 619 nM
[3]
  IC50: 562 nM
[4]
  IC50: 412 nM
[5]
  IC50: < 9.49 nM
Second compound 0.1 µM, first compound 0.00949 µM
  viability, T/C: 118%
Second compound 0.1 µM, first compound 0.03 µM
  viability, T/C: 125%
Second compound 0.1 µM, first compound 0.0949 µM
  viability, T/C: 134%
Second compound 0.1 µM, first compound 0.3 µM
  viability, T/C: 75.5%
Second compound 0.1 µM, first compound 0.949 µM
  viability, T/C: 50.2%
Second compound 0.1 µM, first compound 3 µM
  viability, T/C: 20.5%
Second compound 0.316 µM, first compound 0.00949 µM
  viability, T/C: 130%
Second compound 0.316 µM, first compound 0.03 µM
  viability, T/C: 142%
Second compound 0.316 µM, first compound 0.0949 µM
  viability, T/C: 151%
Second compound 0.316 µM, first compound 0.3 µM
  viability, T/C: 76%
Second compound 0.316 µM, first compound 0.949 µM
  viability, T/C: 49.4%
Second compound 0.316 µM, first compound 3 µM
  viability, T/C: 19.9%
Second compound 1 µM, first compound 0.00949 µM
  viability, T/C: 127%
Second compound 1 µM, first compound 0.03 µM
  viability, T/C: 131%
Second compound 1 µM, first compound 0.0949 µM
  viability, T/C: 129%
Second compound 1 µM, first compound 0.3 µM
  viability, T/C: 67.5%
Second compound 1 µM, first compound 0.949 µM
  viability, T/C: 44.9%
Second compound 1 µM, first compound 3 µM
  viability, T/C: 19.9%
Second compound 3.16 µM, first compound 0.00949 µM
  viability, T/C: 116%
Second compound 3.16 µM, first compound 0.03 µM
  viability, T/C: 146%
Second compound 3.16 µM, first compound 0.0949 µM
  viability, T/C: 131%
Second compound 3.16 µM, first compound 0.3 µM
  viability, T/C: 57.6%
Second compound 3.16 µM, first compound 0.949 µM
  viability, T/C: 37.6%
Second compound 3.16 µM, first compound 3 µM
  viability, T/C: 21.9%
Second compound 10 µM, first compound 0.00949 µM
  viability, T/C: 12.7%
Second compound 10 µM, first compound 0.03 µM
  viability, T/C: 18.3%
Second compound 10 µM, first compound 0.0949 µM
  viability, T/C: 11.7%
Second compound 10 µM, first compound 0.3 µM
  viability, T/C: 4.08%
Second compound 10 µM, first compound 0.949 µM
  viability, T/C: 5.46%
Second compound 10 µM, first compound 3 µM
  viability, T/C: 4.69%
